Laboratory results reported in EP0363275A1, “Low molecular weight vectors specific for sugar receptors, their conjugates and processes for their preparation” (IRE-CELLTARG S.A., priority 1988, dated 1990).
Where “and” joins values, the source holds several entries; their conditions need not be identical. Equal entries are not always repeated. Entries after “also recorded” stand apart in the source; their conditions may differ.

Key:
[1] = biological target: T1, récepteur à asialoglycoprotéine des hépatocytes (Rattus norvegicus, UniProt P02706+P08290); assay: Competition with ¹²⁵I HSA gal for binding to cultured hepatocytes at 4°C; details: for affinité pour le récepteur: cultured rat hepatocytes
T1 construct: le récepteur à galactoses présent à la membrane sinusoïdale des hépatocytes; endogenous in cells; host or cells: primary rat hepatocytes, isolated and cultured 16 h
T1 sequence (P02706 1-284): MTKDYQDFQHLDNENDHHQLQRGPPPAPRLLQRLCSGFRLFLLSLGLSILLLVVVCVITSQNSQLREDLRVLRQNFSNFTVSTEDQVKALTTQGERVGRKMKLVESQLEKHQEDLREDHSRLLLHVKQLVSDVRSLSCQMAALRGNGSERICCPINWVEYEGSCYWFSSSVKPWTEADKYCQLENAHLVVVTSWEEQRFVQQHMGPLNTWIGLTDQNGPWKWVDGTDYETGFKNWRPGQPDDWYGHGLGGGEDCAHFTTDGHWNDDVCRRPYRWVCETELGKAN
T1 sequence (P08290 1-301): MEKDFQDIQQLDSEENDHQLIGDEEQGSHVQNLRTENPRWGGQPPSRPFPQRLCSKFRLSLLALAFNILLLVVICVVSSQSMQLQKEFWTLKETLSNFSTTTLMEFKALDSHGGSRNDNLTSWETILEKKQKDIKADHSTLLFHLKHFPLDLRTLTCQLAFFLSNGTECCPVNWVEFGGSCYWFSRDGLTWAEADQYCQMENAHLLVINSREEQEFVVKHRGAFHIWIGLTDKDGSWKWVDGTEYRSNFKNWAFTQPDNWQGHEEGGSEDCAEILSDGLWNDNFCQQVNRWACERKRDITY
Method: D'autres caractéristiques et avantages de la présente invention apparaîtront à la lumière des exemples qui vont suivre. • - La figure 1 : Expériences de compétition entre l'HSA gal marqué à l'iode-125 et différentes concentrations molaires en HSA gal non radioactives (●) ou en composés glycosylés (mono O bi □ triantenne ▲ ) non radioactifs. Les cellules mises en culture depuis 16 h. sont incubées à 4°C pendant 4 h. en présence de 1 ml de milieu contenant 50 ng d'¹²⁵I HSA gal et les différentes concentrations en produits non radioactifs. Après l'incubation, les cellules sont lavées et la radioactivité qui leur est associée, mesurée. Les résultats sont exprimés en pourcentage d'¹²⁵I HSA gal qui reste associé aux cellules en fonction du logarithme de la concentration molaire en compétiteur. • - La figure 2 : Expériences de compétiton entre l'HSA gal marqué à l'iode-125 et différentes concentrations molaires en galactoses d'HSA gal ou de composés glycosylés (mono O bi □ et triantenne ▲ )non radioactifs. Les cellules sont traitées comme décrit dans la figure 1 et les résultats sont exprimés en pourcentage d'[…] HSA gal qui reste associé aux cellules en fonction du logarithme de la concentration molaire en galactose du compétiteur. • - La figure 3 : Distribution tissulaire de la triantenne marquée au tritium. Différentes concentrations en triantenne ³H sont administrées par voie intraveineuse à des souris OF₁. Trois minutes après l'injection, les animaux sont sacrifiés. Le sang et les différentes organes sont prélevés, homogénéisés et la radioactivité qui leur est associée, mesurée. Les résultats sont exprimés en pourcentage de la dose totale injectée et représentent la moyenne + déviation standard de 3 expériences. • - La figure 4 : Distribution tissulaire de la triantenne marquée au tritium. Des souris ont reçu par voie i.v. différentes concentrations de triantenne ³H. Les animaux sont sacrifiés 3 min. après l'injection. Le sang et les différents organes sont prélevés, homogénéisés et la radioactivité qui leur est associée, mesurée. Les résultats sont présentés en pourcentage de la dose injectée par gr. de tissu et représentent la moyenne + déviation standard de 3 expériences. • - La figure 5 : Capture hépatique de la triantenne marquée au tritium. Différentes concentrations en triantenne ³H sont injectées par voie i.v. à des souris OF₁. La radioactivité associée au foie est mesurée 3 min. après l'injection. Les valeurs sont exprimées en ng de galactose associés au foie en fonction des ng de galactoses injectés. • - La figure 6 : Distribution tissulaire de la triantenne marquée au tritium (a.) ou au technetium (b.). Une concentration de 100 µg en galactoses de triantenne radioactive est injectée par voie i.v. à des souris OF₁. Les animaux sont sacrifiés 3 min. après l'injection. Le sang et les différents organes sont prélevés, homogénéisés et la radioactivité qui leur est associée, mesurée. Les résultats sont exprimés en pourcentage de la dose totale administrée (case supérieure) ou en pourcentage de la dose totale injectée par gr. de tissu (case inférieure). Ils représentent la moyenne + déviation standard de 3 expériences.
L'étude in vitro des vecteurs hépatotropes de faible poids moléculaire a été effectuée sur des hépatocytes de rats isolés et mis en culture.
L'affinité relative a été déterminée par une expérience de compétition entre le vecteur et une néoglycoprotéine connue pour sa haute affinité pour les récepteurs à galactoses, soit l'albumine humaine
Afin de déterminer si les hépathocytes fixent spécifiquement les différents dérivés glycosylés (monoantenne = 3 galactoses terminaux; biantenne = 6 galactoses terminaux; triantenne = 9 galactoses terminaux), des expériences de compétition pour le récepteur à asialoglycoprotéines entre l'HSA gal et les différents composés ont été réalisées. […]

[2] = design: species or system souris OF₁; details: in vivo, iv
Method: D'autres caractéristiques et avantages de la présente invention apparaîtront à la lumière des exemples qui vont suivre. • - La figure 1 : Expériences de compétition entre l'HSA gal marqué à l'iode-125 et différentes concentrations molaires en HSA gal non radioactives (●) ou en composés glycosylés (mono O bi □ triantenne ▲ ) non radioactifs. Les cellules mises en culture depuis 16 h. sont incubées à 4°C pendant 4 h. en présence de 1 ml de milieu contenant 50 ng d'¹²⁵I HSA gal et les différentes concentrations en produits non radioactifs. Après l'incubation, les cellules sont lavées et la radioactivité qui leur est associée, mesurée. Les résultats sont exprimés en pourcentage d'¹²⁵I HSA gal qui reste associé aux cellules en fonction du logarithme de la concentration molaire en compétiteur. • - La figure 2 : Expériences de compétiton entre l'HSA gal marqué à l'iode-125 et différentes concentrations molaires en galactoses d'HSA gal ou de composés glycosylés (mono O bi □ et triantenne ▲ )non radioactifs. Les cellules sont traitées comme décrit dans la figure 1 et les résultats sont exprimés en pourcentage d'[…] HSA gal qui reste associé aux cellules en fonction du logarithme de la concentration molaire en galactose du compétiteur. • - La figure 3 : Distribution tissulaire de la triantenne marquée au tritium. […]

récepteur d'Ashwell = biological target: T2, récepteur d'Ashwell (Rattus norvegicus, UniProt P02706+P08290); assay: Binding sites and Kd of triantenne on hepatocytes; details: number of sites
T2 construct: endogenous in cells
T2 sequence (P02706 1-284): T1 sequence (P02706 1-284)
T2 sequence (P08290 1-301): T1 sequence (P08290 1-301)

hépatocytes = assay: Uptake (internalisation) by hepatocytes at 37°C; assay type: cell-based, rat; details: short periods (120 min)
Method: A 37°C, les récepteurs intériorisent efficacement la triantenne. Par comparaison avec la capture de la macromolécule, ASH gal, les hépatocytes incubés pendant de courtes périodes (120 min), intériorisent jusqu'à 4 fois plus de molécules de triantenne.
Ce fait pourrait s'expliquer par la formation préférentielle de complexes ligand-récepteur à vitesse de dissociation lente, dans le cas de la triantenne.

[3] = Blood disappearance and tissue distribution after i.v. administration (Example 7); assay type: in vivo, souris
From the text: In vivo, on a étudié la disparition sanguine ainsi que la distribution tissulaire de la triantenne suite à son administration intra-veineuse à des souris.

malaria murine = assay: Therapeutic activity of amino-acid derivatives of primaquine in the murine malaria model; assay type: in vivo
[4] = result in words, hepatocytes, 4°C
[5] = among amino-acid derivatives of primaquine

Compound: Cbz-Asp-Asp-tri(-6-amino Hex-Tris tri Gal) [Triantenne]
- affinité par rapport à celle de la biantenne ([1]; ratio triantenne / biantenne): ~100 fois and 60 fois
- affinité exprimée en concentration molaire en galactoses, par rapport à l'HSA gal ([1]; result in words): du même ordre de grandeur
- affinité pour le récepteur ([1]; result in words): la plus haute affinité pour le récepteur; also recorded: affinité importante
- compétition avec l'HSA gal iodiné pour le récepteur à asialoglycoprotéine [1, 4]: induit une diminution de la radioactivité associée aux cellules
- matériel radioactif associé au sang ou au plasma [2]: ≤ 10 % de la dose initiale administrée
- radioactivité associée aux autres organes (rate, coeur, poumons, muscles, estomac, duodenum, colon, rectum) [2]: < 5%
- sites de haute affinité (récepteur d'Ashwell): 56370 sites
- sites de plus faible affinité (récepteur d'Ashwell): 490500 sites
- molécules intériorisées par rapport à l'ASH gal (hépatocytes): ≤ 4 fois
- quantité accumulée par les hépatocytes ([3]; 5 min after injection): > 40 % de la quantité administrée
- quantité interagissant avec les autres organes ([3]; 5 min after injection): < 2%
- rapport des concentrations spécifiques du foie et des reins ([3]; after 10 min): 10
- molécules captées par le foie par rapport à l'ASH gal ([3]; comparable number of molecules, after 5 min): ~2 fois
- disparition sanguine ([3]; result in words): éliminée très rapidement de la circulation sanguine
- rapport des concentrations spécifiques du foie et des reins ([3]; start value): 1.5

Compound: COc1cc(NC(C)CCCNC(=O)C(N)CCCCN)c2ncccc2c1 [L-lysyl-Pq]
- activité (malaria murine; [5]): meilleure activité
- toxicité (malaria murine; compared with primaquine): toxicité plus élevée que celle de la primaquine

Compound: Cbz-Asp bis(-6-amino Hex-Tris tri Gal) [Biantenne]
- affinité pour le récepteur ([1]; result in words): affinité importante
- compétition avec l'HSA gal iodiné pour le récepteur à asialoglycoprotéine [1, 4]: induit une diminution de la radioactivité associée aux cellules; also recorded: entre effectivement en compétition

Compound: COc1cc(NC(C)CCCNC(=O)[C@@H](N)CCC(=O)O)c2ncccc2c1 (stereo partly drawn) [L-glutamyl-Pq]
- index thérapeutique (malaria murine; [5]): meilleur index thérapeutique

Compound: Cbz-Asp-(6-amino Hex-Tris tri Gal) [Monoantenne]
- B=Ic50 (molaire en gal.) ([1]; molar concentration in galactoses of the competitor inhibiting 50 % of ¹²⁵I HSA gal binding, hepatocytes, 4°C, 4 h): non déterminable
- A=Ic 50 (molaire) ([1]; molar concentration of competitor inhibiting 50 % of ¹²⁵I HSA gal binding, hepatocytes, 4°C, 4 h): non déterminable
- affinité pour le récepteur ([1]; result in words): ne présentent d'affinité significative
- compétition avec l'HSA gal iodiné pour le récepteur à asialoglycoprotéine [1, 4]: n'entre pas en compétition; also recorded: se fixe aspécifiquement sur les cellules
